Measurements from ChEMBL document CHEMBL5260850, “The exploration of aza-quinolines as hematopoietic prostaglandin D synthase (H-PGDS) inhibitors with low brain exposure” (Bioorg Med Chem, 2020).

Columns and labels:
[1] = Clearance in dog at 0.5 mg/kg, iv; assay type: ADME, organism-based, Canis lupus familiaris; details: in vivo
[2] = Free Cmax in eccentric contraction-induced muscle injury C57BL/6N mouse model administered orally 10 mins prior to unilateral eccentric contraction and QD for 16 days thereafter; assay type: ADME; details: in vivo, po, 384 h, time 16 day
Mus musculus = assay: Anti-inflammatory activity against mdx mouse assessed as inhibition of muscle function loss by measuring functional recovery of injured limb muscles at 0.1 to 10 mg/kg, po administered 10 mins prior to unilateral eccentric contraction and QD for 43 days thereafter; parameters: scale not given: the % may be the effect or the level left; details: dose 0.1-10 mg/kg, time 43 day

For `CC(C)(O)[C@H]1CC[C@H](NC(=O)c2cnc3nc(C4CC4)ccc3c2)CC1`, the clearance [1] was 1.9 mL/min/kg, the fCmax [2] was 370 ng/mL and the Activity (Mus musculus) was 90%.
